Reference: patent US7176219B2, “Salts of quinuclidine derivative” (priority 2005, dated 2007)

How the values were obtained:
muscarinic M3 receptors = muscarinic M3 receptors (Homo sapiens, UniProt P20309); settings: made public in Patent document 1 (EP 0 801 067); cited from earlier work
[1] = Evaluation of stability (1): forced degradation test, impurities by LC
Procedure: A sample after storage was dissolved in 1 mL of MeOH and used as a sample solution. The sample solution was diluted 100 times with MeOH and used as a standard solution. Impurities contained in the sample solution was quantitatively analyzed using the standard solution. In this determination, the apparatus including data processing was operated according to the method and procedure directed in each device. (Apparatus: LC-MSD 1100 series, made by Agilent)

[2] = Evaluation of stability (2): stress testing, impurities by LC, UV at 210 nm; type: physicochemical
Procedure: A sample (about 5 mg) was weighed in a glass mess-flask of 10 mL and applied to a stress testing in the following storage conditions. • Condition 1: 5° C.—shading—tightly closed • Condition 2: 40° C.—relative humidity 75%—open • Condition 3: 60° C.—shading—tightly closed • Condition 4: 80° C.—shading—tightly closed • Condition 5: 25° C.—D65 (1000 lux)—tightly closed
Chemical stability: After storage, MeOH was placed in the mess-flask containing the sample up to the level of the marked line, and the resulting solution was used as a sample solution. The sample solution was diluted 100 times with MeOH to prepare a standard solution, which was used in determination of impurities contained in the sample solution. Detection of the impurities was performed by means of UV at 210 nm. […] (Apparatus: LC-MSD 1100 series, made by Agilent)

[3] = Evaluation of hygroscopicity (dynamic steam adsorption, weight change); type: physicochemical; settings: for Deliquescence during water absorption measurement: 5–95% relative humidity; for Deliquescence during water absorption measurement / Weight Change (%): hydrochloride; for Weight Change (%): within the range 5–95% relative humidity
Procedure: A sample (about 5 mg) was placed in a purpose-made quartz holder, and the sample weight at the respective humidity was continuously measured and recorded in the following conditions. The apparatus including data processing was operated according to the method and procedure directed in each device. (Apparatus: dynamic steam adsorption measuring apparatus DVS Advantage, made by SMS)

[4] = Hygroscopicity and long-term storage of the known hydrochloride (disclosure section); type: physicochemical
[5] = 25° C., listed as Compound A hydrochloride

muscarinic M3 receptors, sequence (P20309 whole entry): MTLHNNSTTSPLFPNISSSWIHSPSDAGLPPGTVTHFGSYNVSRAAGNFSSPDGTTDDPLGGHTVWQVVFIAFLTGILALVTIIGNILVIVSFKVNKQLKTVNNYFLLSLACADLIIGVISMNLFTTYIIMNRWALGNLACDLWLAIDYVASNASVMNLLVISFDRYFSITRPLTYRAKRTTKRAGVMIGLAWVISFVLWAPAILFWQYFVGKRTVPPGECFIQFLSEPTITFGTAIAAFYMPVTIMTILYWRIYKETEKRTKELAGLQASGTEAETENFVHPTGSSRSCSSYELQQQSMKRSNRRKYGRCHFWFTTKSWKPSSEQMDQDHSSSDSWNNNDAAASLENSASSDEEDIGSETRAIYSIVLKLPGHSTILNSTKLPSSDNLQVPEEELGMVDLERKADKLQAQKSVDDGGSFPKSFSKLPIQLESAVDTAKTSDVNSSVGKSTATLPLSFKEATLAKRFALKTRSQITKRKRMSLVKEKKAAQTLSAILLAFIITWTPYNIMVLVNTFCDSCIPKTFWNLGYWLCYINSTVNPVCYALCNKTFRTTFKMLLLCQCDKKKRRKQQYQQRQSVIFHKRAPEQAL

O=C(O[C@H]1CN2CCC1CC2)N1CCc2ccccc2[C@H]1c1ccccc1 [Compound A, (−)-(3R)-quinuclidin-3-yl(1R)-1-phenyl-1,2,3,4-tetrahydroisoquinoline-2-carboxylate]
Affinity and selectivity for muscarinic M3 receptors (muscarinic M3 receptors): displays an affinity and selectivity for muscarinic M3 receptors

Cl.O=C(O[C@H]1CN2CCC1CC2)N1CCc2ccccc2[C@@H]1c1ccccc1 [Reference Example 2, Compound A hydrochloride, reference compound]
Change from Impurity Amt. before Storage (%), Condition 3 ([1]; 25° C., NUV (near ultraviolet ray) irradiated, tightly closed, 5 days): 2.0%
Change from Impurity Amt. before Storage (%), Condition 2 ([1]; 25° C., relative humidity 93%, open, 5 days): 3.8%
Change from Impurity Amt. before Storage (%), Condition 1 ([1]; 120° C., tightly closed, 24 hours): 0.2%
Stability to humidity ([1]; Condition 2 in Test Example 2 and Condition 2 in Test Example 3): not so stable to humidity
Stability to light ([1]; Condition 3 in Test Example 2 and Condition 5 in Test Example 3): not so stable
Increase of impurities during storage ([1]; Table 2 and Table 3): impurities increased during storage
Impurities before Storage (%) ([1]; before storage): 0.1%
Impurities (%) ([2]; Condition 1: 5° C., shading, tightly closed, 1 month): 0.21%
Impurities (%) ([2]; Condition 1: 5° C., shading, tightly closed, 2 months): 0.18%
Impurities (%) ([2]; Condition 1: 5° C., shading, tightly closed, 2 weeks): 0.25%
Impurities (%) ([2]; Condition 2: 40° C., relative humidity 75%, open, 1 month): 8.19%
Impurities (%) ([2]; Condition 2: 40° C., relative humidity 75%, open, 2 months): 9.20%
Impurities (%) ([2]; Condition 2: 40° C., relative humidity 75%, open, 2 weeks): 8.72%
Impurities (%) ([2]; Condition 3: 60° C., shading, tightly closed, 1 month): 0.22%
Impurities (%) ([2]; Condition 3: 60° C., shading, tightly closed, 2 months): 0.24%
Impurities (%) ([2]; Condition 3: 60° C., shading, tightly closed, 2 weeks): 0.34%
Impurities (%) ([2]; Condition 4: 80° C., shading, tightly closed, 1 month): 0.39%
Impurities (%) ([2]; Condition 4: 80° C., shading, tightly closed, 2 months): 0.47%
Impurities (%) ([2]; Condition 4: 80° C., shading, tightly closed, 2 weeks): 0.43%
Impurities (%) ([2]; Condition 5: 25° C., D65 (1000 lux), tightly closed, 1 month): 2.38%
Impurities (%) ([2]; Condition 5: 25° C., D65 (1000 lux), tightly closed, 2 months): 3.68%
Impurities (%) ([2]; Condition 5: 25° C., D65 (1000 lux), tightly closed, 2 weeks): 1.73%
Deliquescence during water absorption measurement ([3]; 25° C.): deliquescent
Deliquescence during water absorption measurement [3, 5]: accompanied by deliquescence
Relative humidity at which rapid moisture uptake began ([3]; 25° C., FIG. 1): about 65 % relative humidity
Weight Change (%) ([3]; 25° C.): > 35%
Weight Change (%) [3, 5]: exceeded 35%
Weight gain by absorption of moisture ([3]; at 75% or more relative humidity): ≥ 15%
Impurities during long-term storage ([4]; long-term storage): increase of impurities during long-term storage
Hygroscopicity in a conventional environment ([4]; relative humidity of 70% (room temperature)): so hygroscopic as to deliquesce
